Measured values from patent US20080207859A1, “F[…] LOW RESIDUAL AMOUNT OF F[…] PROCESS FOR ITS PRODUCTION” (Asahi Glass Company, Limited, priority 2005, published 2008).

Test: Measurement of 1-octanol/water partition coefficient (LogPOW) by HPLC, OECD Test Guideline 117
Type: physicochemical
Conditions: for LogPOW (1-octanol/water partition coefficient): HPLC method, OECD Test Guideline 117, calculated from elution time via calibration curve of standard carboxylic acids, column temperature 40° C.; for bioaccumulation potential (judged from LogPOW value compared to APFO): inferred from LogPOW relative to APFO
Description: In accordance with OECD Test Guideline 117, 1-octanol/water partition coefficient (LogPOW) of a fluorinated emulsifier was measured by using HPLC (high performance liquid chromatography).
Conditions for the measurement were as follows:
column: TOSOH ODS-120T column (φ4.6 mm×250 mm), eluent: acetonitrile/0.6 mass % of HClO4 aqueous solution=1/1 (vol/vol %), flow rate: […], sample amount: 300 μL, column temperature: 40° C., and detection light: UV 210 nm (WO2005-42593).
HPLC was carried out on standard substances (heptanoic acid, octanoic acid, nonanoic acid and decanoic acid) having known 1-octanol/water partition coefficients, and a calibration curve was prepared from the respective elution times and octanol/water partition coefficients of the respective standard substances. Based on this calibration curve, a value of partition coefficient (LogPOW) between 1-octanol and water was calculated from the elution time by HPLC of the fluorinated emulsifier.

With `N.O=C(O)C(F)(F)OC(F)(F)C(F)(F)OC(F)(F)C(F)(F)F` [CF3CF2OCF2CF2OCF2COONH4] as the compound, how does the “LogPOW (1-octanol/water partition coefficient)” value read?
Its value is 3.13.

And the “bioaccumulation potential (judged from LogPOW value compared to APFO)” value?
Its value is “low”.

With `N.O=C(O)C(F)(F)C(F)(F)C(F)(F)C(F)(F)C(F)(F)C(F)(F)C(F)(F)F` [CF3(CF2)6COONH4, ammonium perfluorooctanoate] as the compound, how does the “LogPOW (1-octanol/water partition coefficient)” value read?
The value was 3.67.

Which “LogPOW (1-octanol/water partition coefficient)” value does the source give for `N.O=C(O)C(F)(OC(F)(F)C(F)(OC(F)(F)C(F)(F)F)C(F)(F)F)C(F)(F)F` (centres unmarked) [CF3CF2OCF(CF3)CF2OCF(CF3)COONH4] here?
Its value is 4.03.

And the “bioaccumulation potential (judged from LogPOW value compared to APFO)” value?
Its value is “high”.
